Data as given in BindingDB's records for patent US20240116922 (Biogen Ma, 2024).

What follows are molecules tested against T1, Interleukin-1 receptor-associated kinase 4 (Homo sapiens, UniProt Q9NWZ3) (assay: Biochemical Assay).
T1 sequence (Q9NWZ3 whole entry): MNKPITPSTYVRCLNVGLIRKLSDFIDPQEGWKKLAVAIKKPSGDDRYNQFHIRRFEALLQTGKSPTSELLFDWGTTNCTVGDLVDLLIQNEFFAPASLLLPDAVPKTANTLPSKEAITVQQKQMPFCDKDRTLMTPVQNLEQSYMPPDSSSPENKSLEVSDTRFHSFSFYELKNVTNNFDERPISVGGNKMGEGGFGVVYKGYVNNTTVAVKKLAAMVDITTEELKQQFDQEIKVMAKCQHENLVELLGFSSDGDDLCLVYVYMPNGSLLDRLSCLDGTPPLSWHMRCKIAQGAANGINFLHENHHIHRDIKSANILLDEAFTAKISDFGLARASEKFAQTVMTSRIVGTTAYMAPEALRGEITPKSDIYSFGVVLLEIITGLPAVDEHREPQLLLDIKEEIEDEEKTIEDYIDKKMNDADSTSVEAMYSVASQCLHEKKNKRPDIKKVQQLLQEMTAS

IC50	Structure (SMILES)
0.2 nM	CC[C@H](C)Oc1cc2nc(C34COC(C)(C3)C4)cn2cc1C(=O)Nc1cccn([C@@H]2C[C@@H]2F)c1=O (mixture of isomers) [US20240116922, Example 96]
0.3 nM	CC[C@H](C)Oc1nc2nc(C34COC(C)(C3)C4)cn2cc1C(=O)Nc1cccn([C@@H]2C[C@@H]2F)c1=O (mixture of isomers) [US20240116922, Example 42]

Structure (SMILES)	IC50
CC(C)Oc1cc2nc(C34COC(C)(C3)C4)cn2cc1C(=O)Nc1ccnn(C2CC2)c1=O [US20240116922, Example 76]	1.6 nM
